From PubChem BioAssay (NCI)
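Assay format: 96-well plates, 48-hour exposure. GI50: concentration for 50% inhibition of growth. At the TGI there is no net growth.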

Tests used:
Assay in all cases: NCI tumour cell line growth inhibition, 48 h
UACC-257 melanoma = test system: UACC-257 melanoma
HOP-62 NSCLC = test system: HOP-62 NSCLC
786-0 renal = test system: 786-0 renal
OVCAR-4 ovarian = test system: OVCAR-4 ovarian
CCRF-CEM leukemia = test system: CCRF-CEM leukemia
SF-539 CNS = test system: SF-539 CNS
ACHN renal = test system: ACHN renal
HOP-92 NSCLC = test system: HOP-92 NSCLC
HCT-116 colon = test system: HCT-116 colon
A498 renal = test system: A498 renal

SMILES	GI50 (UACC-257 melanoma)	TGI (UACC-257 melanoma)	TGI (HOP-62 NSCLC)	GI50 (786-0 renal)	TGI (786-0 renal)	TGI (OVCAR-4 ovarian)	GI50 (CCRF-CEM leukemia)	TGI (CCRF-CEM leukemia)	GI50 (SF-539 CNS)	TGI (SF-539 CNS)	GI50 (ACHN renal)	TGI (ACHN renal)	GI50 (HOP-92 NSCLC)	TGI (HOP-92 NSCLC)	GI50 (HCT-116 colon)	TGI (HCT-116 colon)	GI50 (HOP-62 NSCLC)	GI50 (OVCAR-4 ovarian)	TGI (A498 renal)
CC1=CC(=O)c2[nH]c3ccccc3c2C1=O	4.57 µM	8.58 µM	> 25 µM	4.27 µM	7.71 µM	7.58 µM	3.33 µM	10.6 µM	4.28 µM	7.79 µM	4.14 µM	7.54 µM	3.98 µM	7.36 µM	4.44 µM	7.93 µM			
C/C(=N\n1c(N)c(C#N)c(-c2ccc(Cl)cc2)c(C#N)c1=O)c1cccnc1	> 100 µM	> 100 µM	> 100 µM	> 100 µM	> 100 µM	> 100 µM	> 100 µM	> 100 µM			> 100 µM	> 100 µM		34.8 µM	> 100 µM	> 100 µM	> 100 µM	> 100 µM	
C(=C1/CCCCC([n+]2ccccc2)=N1)/c1ccccc1			> 100 µM		> 100 µM	> 100 µM		> 100 µM		> 100 µM		> 100 µM		> 100 µM		> 100 µM			
C[P+](C)(CC(F)(F)F)c1ccccc1		> 100 µM	> 100 µM		> 100 µM			> 100 µM		> 100 µM		> 100 µM				> 100 µM			> 100 µM
O=C(O)c1oc2ccc([N+](=O)[O-])c3c2c1CCC3		> 100 µM	> 100 µM		> 100 µM	> 100 µM				> 100 µM		> 100 µM		> 100 µM		> 100 µM			
CCOc1ccc(N2C(N)=NC(N)=NC2(C)C)cc1	> 100 µM	> 100 µM	> 100 µM	44.9 µM	> 100 µM	> 100 µM	> 100 µM	> 100 µM	28.6 µM	> 100 µM	> 100 µM	> 100 µM	> 100 µM	> 100 µM	34.6 µM	> 100 µM	95 µM	> 100 µM	
Cc1cc(C(=O)NCCN(C)C)c2nc3ccccc3nc2c1		17.2 µM	10.4 µM		> 61.9 µM	19.5 µM				19.4 µM		> 51 µM				16.3 µM			16.4 µM
Cc1ccc(C)c2sc3cc(=O)ccc-3nc12		> 100 µM	> 100 µM		> 100 µM	48.1 µM		70.3 µM		> 100 µM		> 100 µM		83.3 µM		> 100 µM			
CCn1c(-c2cc3ccccc3cc2OC(=O)c2ccccc2)n[nH]c1=S	> 50 µM	> 50 µM	> 50 µM	> 50 µM	> 50 µM	> 50 µM			> 50 µM	> 50 µM	> 50 µM	> 50 µM	> 50 µM	> 50 µM	43.1 µM	> 50 µM	> 50 µM	> 50 µM	
C[C@@H]1CC[C@H]2C(CN3CCN(CC4=C(C(F)(F)F)O[C@@H]5O[C@@]6(C)CC[C@H]7[C@H](C)CC[C@@H]4[C@@]57OO6)CC3)=C(C(F)(F)F)O[C@@H]3O[C@@]4(C)CC[C@@H]1[C@]32OO4	1.95 µM	> 31.5 µM	> 46.9 µM	1.8 µM	> 37.3 µM	> 100 µM	0.605 µM	> 100 µM	0.567 µM	> 100 µM	2.61 µM	> 27.2 µM	5.15 µM	> 100 µM	0.262 µM	> 35.9 µM		3.17 µM	
CC(C)c1cc2c(O)c(c1)Cc1cc(C(C)C)cc(c1O)Cc1cc(C(C)C)cc(c1O)Cc1cc(C(C)C)cc(c1O)Cc1cc(C(C)C)cc(c1O)Cc1cc(C(C)C)cc(c1O)C2		> 100 µM	> 100 µM		> 100 µM	> 100 µM		> 100 µM		> 100 µM		> 100 µM		> 100 µM		> 100 µM			
CN(C)c1ccc(/C=N/Nc2ccc(-c3nc4ccccc4[nH]3)cc2)cc1	9.81 µM	25.8 µM	> 50 µM	10.6 µM	38.6 µM						8.76 µM	41.7 µM	12.4 µM	> 50 µM	15.1 µM	> 50 µM	20.8 µM		
CC1=C[C@H]2C[C@@]3(C)O[C@@H]([C@]4(C)CC[C@H]([C@@H](C)C(=O)O)OO4)CC3C(C)(C)[C@H]2CC1 (stereo partly drawn)		3.17 µM	3.94 µM		4.99 µM	2.9 µM				3.57 µM		3.05 µM		0.273 µM		3.78 µM			
CC(C)(C)c1ccc(C(O)(c2ccc(C(C)(C)C)cc2)c2ccc(C(C)(C)C)cc2)cc1			> 100 µM		> 100 µM	> 100 µM		> 100 µM		> 100 µM		> 100 µM				> 100 µM			> 100 µM
COc1ccc(/C=C/CO)cc1OC		> 100 µM			> 100 µM					> 100 µM		> 100 µM		> 100 µM					
CN(C)/C(=N/C(=O)Nc1ccccc1)SCc1ccccc1		> 100 µM	> 100 µM		> 100 µM	> 100 µM		> 100 µM		> 100 µM		> 100 µM							> 100 µM
